Experimental data as given in patent publication US9078868B2, “Therapeutic agent for accelerating recovery of animal under medical treatment” (UNIVERSITY OF MIYAZAKI, priority 2010, dated 2015).
No end group written: not given here. *: point of attachment. Octanoyl = CCCCCCCC(=O)*

Test system: hospitalized animals (canines and felines) with poor physical conditions
Assay: Example 3-1: repeated dose of ghrelin (analyzed together with single dose animals), compiled by disease group
Type: in vivo
Set-up: key to Degree of anger or anxiety score after administration: 1 = calm/accustomed to staff … 5 = too violent to touch, bites
Details: for BUN: animals improved/animals evaluated / Body temperature: animals improved/animals evaluated / CPK: animals improved/animals evaluated / CRE: animals improved/animals evaluated / Degree of anger: animals improved/animals evaluated / GOT: animals improved/animals evaluated / GPT: animals improved/animals evaluated / PLT: animals improved/animals evaluated / Vigor: animals improved/animals evaluated / WBC: animals improved/animals evaluated / Respiratory rate: animals improved/animals evaluated / CRP: animals improved/animals evaluated: single or repeated dose; for Respiratory rate after administration: before administration 100/min; for GPT value after administration: before administration 1000 IU/L; for Activity (vigor) score after administration / Degree of anger or anxiety score after administration: example; for Activity (vigor) score after administration: scale 1-7; for Degree of anger or anxiety score after administration: before administration a score of 5, scale 1-5
Protocol: In these Examples, a canine-derived ghrelin (a peptide compound in which a side chain hydroxyl group of the serine residue at the 3rd position from the amino terminus is acylated with an n-octanoyl group in SEQ ID NO: 1) was used as ghrelin. The canine-derived ghrelin was chemically synthesized and then lyophilized, and a canine-derived ghrelin for administration containing 0.1, 0.3, 0.5, or 1 mg per vial of a canine-derived ghrelin was prepared.
To administer ghrelin to animals, the canine-derived ghrelin was dissolved to a concentration of 1 mg/2 mL in physiological saline and intravenously, subcutaneously, or intramuscularly injected after the dose was adjusted depending on the body weight.
The evaluation parameters used were activity (vigor), body temperature, hematology parameters (blood cell test values), serum biochemistry parameters (biochemical test values), the degree of anger or anxiety, and respiratory rate. […] The degree of anger or anxiety of an animal observed visually by an observer were also evaluated using the following criteria: 1. calm and accustomed to a health care professional, 2. able to be touched by but unaccustomed to a health care professional and restless, 3. wandering around or hiding in the kennel with anxiety, 4. able to be barely touched, and 5. too violent to be touched by a health care professional and tends to bite.
A canine-derived ghrelin was repeatedly administered intravenously or subcutaneously to each of the animals with poor physical conditions. The dose of intravenous administration was approximately 5 μg/kg or 10 μg/kg, and the dose of subcutaneous administration was approximately 100 μg/kg. The mean number of doses in repeated administration was approximately four times, and the maximum number of doses was 11 times. The administration period was one to six days.
Evaluation parameters evaluated before and after administration of ghrelin were appetite, quantity of meal, biochemical test values (GOT, GPT, BUN, CRE, CPK, CRP), blood cell test values (white blood cell [WBC], platelet [PLT]), body temperature, activity (vigor), skin, coat, wellness, the degree of anger or anxiety, respiratory rate, and others. These parameters were analyzed together with the results of the animals receiving a single dose (Examples 1 and 2). The analysis results were compiled by disease, such as renal dysfunction, tumor, fracture, and accident (see Table 3-1). Statistical analysis of values before and after administration was performed using a paired t-test.

[1] = fracture, accident, etc., 19 animals
[2] = fracture, accident, etc., *p < 0.05, **p < 0.01
[3] = gastrointestinal tract disease, 7 animals
[4] = genital disease, *p < 0.05, **p < 0.01
[5] = infection or parasitism, 15 animals
[6] = infection or parasitism, *p < 0.05, **p < 0.01
[7] = inflammatory disease, 13 animals
[8] = inflammatory disease, *p < 0.05, **p < 0.01
[9] = renal dysfunction, *p < 0.05, **p < 0.01

## GSS (n-octanoyl) FLSPEHQKLQQRKESKKPPAKLQPR (GSS(Octanoyl)FLSPEHQKLQQRKESKKPPAKLQPR; listed as Canis familiaris) [ghrelin, chemically synthesized, lyophilized]
[1]
  BUN: animals improved/animals evaluated: 6/7
  Body temperature: animals improved/animals evaluated: 5/7
  CPK: animals improved/animals evaluated: 2/2
  CRE: animals improved/animals evaluated: 2/3
  Degree of anger: animals improved/animals evaluated: 6/10
  GOT: animals improved/animals evaluated: 6/6
  GPT: animals improved/animals evaluated: 6/7
  PLT: animals improved/animals evaluated: 4/8
  Vigor: animals improved/animals evaluated: 13/16
  WBC: animals improved/animals evaluated: 3/7
fracture, accident, etc., 19 animals, #respiratory rate was stabilized in 2 of 2 animals
  Respiratory rate: animals improved/animals evaluated: 2/2
[2]
  BUN: change after vs before administration (t-test): Decreased*
  Body temperature: change after vs before administration (t-test): Decreased*
  CPK: change after vs before administration (t-test): Decreased*
  Degree of anger: change after vs before administration (t-test): Improved*
  GOT: change after vs before administration (t-test): Decreased*
  GPT: change after vs before administration (t-test): Decreased*
  Vigor: change after vs before administration (t-test): Improved**
fractures, accidents, etc., before administration 18.3 mg/dL
  BUN value after administration: 10.6 mg/dL
fractures, accidents, etc., before administration 39.2° C.
  Body temperature after administration: 38.0 °C
fractures, accidents, etc., before administration 42.4 IU/L
  CPK value after administration: 9.4 IU/L
fractures, accidents, etc.
  Respiratory rate after administration: 50 min⁻¹
  GPT value after administration: 32 IU/L
  Degree of anger or anxiety score after administration: 1
fractures, accidents, etc., before administration 996 IU/L
  GOT value after administration: 22 IU/L
fractures, accidents, etc., before administration a score of 1
  Activity (vigor) score after administration: 3
[3]
  BUN: animals improved/animals evaluated: 1/1
  Body temperature: animals improved/animals evaluated: 2/3
  CPK: animals improved/animals evaluated: 2/2
  Degree of anger: animals improved/animals evaluated: 0/1
  GOT: animals improved/animals evaluated: 3/3
  GPT: animals improved/animals evaluated: 3/3
  PLT: animals improved/animals evaluated: 0/1
  Vigor: animals improved/animals evaluated: 5/5
  WBC: animals improved/animals evaluated: 2/2
Gastrointestinal tract disease, *p < 0.05, **p < 0.01
  Vigor: change after vs before administration (t-test): Improved*
Gastrointestinal tract diseases, before administration a score of 1
  Activity (vigor) score after administration: 5
Genital disease, 29 animals
  BUN: animals improved/animals evaluated: 3/3
  Body temperature: animals improved/animals evaluated: 11/11
  CRE: animals improved/animals evaluated: 1/2
  CRP: animals improved/animals evaluated: 5/5
  Degree of anger: animals improved/animals evaluated: 2/8
  GOT: animals improved/animals evaluated: 3/3
  GPT: animals improved/animals evaluated: 4/4
  PLT: animals improved/animals evaluated: 4/7
  Respiratory rate: animals improved/animals evaluated: 1/1
  Vigor: animals improved/animals evaluated: 13/15
  WBC: animals improved/animals evaluated: 5/7
[4]
  BUN: change after vs before administration (t-test): Decreased*
  Body temperature: change after vs before administration (t-test): Decreased**
  CRP: change after vs before administration (t-test): Decreased*
  Vigor: change after vs before administration (t-test): Improved**
Genital diseases, before administration 31.5 mg/dL
  BUN value after administration: 7.1 mg/dL
Genital diseases, before administration 100 mg/dL
  CRP value after administration: 16 mg/dL
Genital diseases, before administration 40.1° C.
  Body temperature after administration: 38.1 °C
Genital diseases, before administration a score of 1
  Activity (vigor) score after administration: 3
[5]
  BUN: animals improved/animals evaluated: 2/2
  Body temperature: animals improved/animals evaluated: 3/3
  CPK: animals improved/animals evaluated: 1/1
  CRE: animals improved/animals evaluated: 1/1
  Degree of anger: animals improved/animals evaluated: 0/2
  GOT: animals improved/animals evaluated: 1/2
  GPT: animals improved/animals evaluated: 3/4
  PLT: animals improved/animals evaluated: 3/4
  Respiratory rate: animals improved/animals evaluated: 3/3
  Vigor: animals improved/animals evaluated: 10/11
  WBC: animals improved/animals evaluated: 1/4
[6]
  BUN: change after vs before administration (t-test): Decreased*
  Respiratory rate: change after vs before administration (t-test): Improved*
  Vigor: change after vs before administration (t-test): Improved**
Infections and parasitism, before administration 23.4 mg/dL
  BUN value after administration: 16.4 mg/dL
Infections and parasitism
  Respiratory rate after administration: 70 min⁻¹
Infections and parasitism, before administration a score of 1
  Activity (vigor) score after administration: 3
[7]
  BUN: animals improved/animals evaluated: 4/4
  Body temperature: animals improved/animals evaluated: 5/6
  CPK: animals improved/animals evaluated: 1/1
  CRE: animals improved/animals evaluated: 0/2
  CRP: animals improved/animals evaluated: 1/2
  Degree of anger: animals improved/animals evaluated: 2/5
  GOT: animals improved/animals evaluated: 3/4
  GPT: animals improved/animals evaluated: 4/4
  PLT: animals improved/animals evaluated: 2/4
  Vigor: animals improved/animals evaluated: 9/9
  WBC: animals improved/animals evaluated: 3/4
Inflammatory disease, 13 animals, #respiratory rate was stabilized in 2 of 2 animals
  Respiratory rate: animals improved/animals evaluated: 2/2#
[8]
  BUN: change after vs before administration (t-test): Decreased*
  Body temperature: change after vs before administration (t-test): Decreased*
  GOT: change after vs before administration (t-test): Decreased*
  GPT: change after vs before administration (t-test): Decreased*
  Vigor: change after vs before administration (t-test): Improved*
Inflammatory diseases, before administration 18.6 mg/dL
  BUN value after administration: 10.7 mg/dL
Inflammatory diseases, before administration 39.8° C.
  Body temperature after administration: 38.7 °C
Inflammatory diseases, before administration 149 IU/L
  GOT value after administration: 25.0 IU/L
Inflammatory diseases
  GPT value after administration: 282 IU/L
Inflammatory diseases, before administration a score of 1
  Activity (vigor) score after administration: 3
Renal dysfunction, 10 animals
  BUN: animals improved/animals evaluated: 2/3
  Body temperature: animals improved/animals evaluated: 2/2
  CRE: animals improved/animals evaluated: 3/3
  Degree of anger: animals improved/animals evaluated: 1/3
  GOT: animals improved/animals evaluated: 0/1
  GPT: animals improved/animals evaluated: 1/1
  PLT: animals improved/animals evaluated: 4/5
  Respiratory rate: animals improved/animals evaluated: 1/1
  Vigor: animals improved/animals evaluated: 5/6
  WBC: animals improved/animals evaluated: 5/5
[9]
  CRE: change after vs before administration (t-test): Decreased*
  PLT: change after vs before administration (t-test): Increased**
  Vigor: change after vs before administration (t-test): Improved**
  WBC: change after vs before administration (t-test): Decreased*
Renal dysfunctions, before administration 3.2 mg/dL
  Serum creatinine (CRE) value after administration: 1.3 mg/dL
Renal dysfunctions, before administration 324×10^2/μL
  White blood cell (WBC) count after administration: 13900 µL⁻¹
Renal dysfunctions, before administration a score of 2
  Activity (vigor) score after administration: 3
tumor, 14 animals
  BUN: animals improved/animals evaluated: 2/4
  Body temperature: animals improved/animals evaluated: 6/6
  CRE: animals improved/animals evaluated: 2/4
  CRP: animals improved/animals evaluated: 2/2
  Degree of anger: animals improved/animals evaluated: 4/6
  GOT: animals improved/animals evaluated: 3/5
  GPT: animals improved/animals evaluated: 4/6
  PLT: animals improved/animals evaluated: 3/6
  Respiratory rate: animals improved/animals evaluated: 1/1
  Vigor: animals improved/animals evaluated: 7/8
  WBC: animals improved/animals evaluated: 3/6
tumor, *p < 0.05, **p < 0.01
  Body temperature: change after vs before administration (t-test): Decreased*
  Degree of anger: change after vs before administration (t-test): Improved*
  Vigor: change after vs before administration (t-test): Improved*
tumors, before administration 39.8° C.
  Body temperature after administration: 38.6 °C
tumors, before administration a score of 3
  Activity (vigor) score after administration: 6
tumors
  Degree of anger or anxiety score after administration: 2
